Reference: patent US7750003B2, “Compounds-943” (AstraZeneca AB, priority 2006, dated 2010)
Read-outs that look alike come from different tables or passages of the source.

Test system: phosphorylation of Serine 473 in Akt in MDA-MB-468 human breast adenocarcinoma cells
Assay: In vitro phospho-Ser473 Akt assay (Test (c))
Format: cell-based
Settings: MDA-MB-468 cells, 2 hours incubation, read-out: Test (c): IC50 versus Serine 473 in Akt
Method: (c) In Vitro Phospho-Ser473 Akt Assay
This assay determines the ability of test compounds to inhibit phosphorylation of Serine 473 in Akt as assessed using Acumen Explorer technology (Acumen Bioscience Limited), a plate reader that can be used to rapidly quantitate features of images generated by laser-scanning.
A MDA-MB-468 human breast adenocarcinoma cell line (LGC Promochem, Teddington, Middlesex, UK, Catalogue No. HTB-132) was routinely maintained at 37° C. with 5% CO2 up to a confluency of 70-90% in DMEM containing 10% heat-inactivated FCS and 1% L-glutamine.
For the assay, the cells were detached from the culture flask using ‘Accutase’ (Innovative Cell Technologies Inc., San Diego, Calif., USA; Catalogue No. AT104) using standard tissue culture methods and resuspended in media to give 1.7×10^5 cells per mL. Aliquots (90 μl) were seeded into each of the inner 60 wells of a black Packard 96 well plate (PerkinElmer, Boston, Mass., USA; Catalogue No. 6005182) to give a density of 15000 cells per well. Aliquots (90 μl) of culture media were placed in the outer wells to prevent edge effects. The cells were incubated overnight at 37° C. with 5% CO2 to allow them to adhere.
On day 2, the cells were treated with test compounds and incubated for 2 hours at 37° C. with 5% CO2. Test compounds were prepared as 10 mM stock solutions in DMSO and serially diluted as required with growth media to give a range of concentrations that were 10-fold the required final test concentrations. Aliquots (10 μl) of each compound dilution were placed in a well (in triplicate) to give the final required concentrations. As a minimum response control, each plate contained wells having a final concentration of 100 μM LY294002 (Calbiochem, Beeston, UK, Catalogue No. 440202). As a maximum response control, wells contained 1% DMSO instead of test compound. Following incubation, the contents of the plates were fixed by treatment with a 1.6% aqueous formaldehyde solution (Sigma, Poole, Dorset, UK, Catalogue No. F1635) at room temperature for 1 hour.
All subsequent aspiration and wash steps were carried out using a Tecan 96 well plate washer (aspiration speed 10 mm/sec). The fixing solution was removed and the contents of the plates were washed with phosphate-buffered saline (PBS; 50 μl; Gibco, Catalogue No. 10010015). The contents of the plates were treated for 10 minutes at room temperature with an aliquot (50 μl) of a cell permeabilisation buffer consisting of a mixture of PBS and 0.5% Tween-20. The ‘permeabilisation’ buffer was removed and non-specific binding sites were blocked by treatment for 1 hour at room temperature of an aliquot (50 μl) of a blocking buffer consisting of 5% dried skimmed milk [‘Marvel’ (registered trade mark); Premier Beverages, Stafford, GB] in a mixture of PBS and 0.05% Tween-20. The ‘blocking’ buffer was removed and the cells were incubated for 1 hour at room temperature with rabbit anti phospho-Akt (Ser473) antibody solution (50 μl per well; Cell Signalling, Hitchin, Herts, U.K., Catalogue No 9277) that had been diluted 1:500 in ‘blocking’ buffer. Cells were washed three times in a mixture of PBS and 0.05% Tween-20. Subsequently, cells were incubated for 1 hour at room temperature with Alexafluor488 labelled goat anti-rabbit IgG (50 μl per well; Molecular Probes, Invitrogen Limited, Paisley, UK, Catalogue No. A11008) that had been diluted 1:500 in ‘blocking’ buffer. Cells were washed 3 times with a mixture of PBS and 0.05% Tween-20. An aliquot of PBS (50 μl) was added to each well and the plates were sealed with black plate sealers and the fluorescence signal was detected and analysed.
Fluorescence dose response data obtained with each compound were analysed and the degree of inhibition of Serine 473 in Akt was expressed as an IC50 value.

Molecule | IC50 (Homo sapiens, MDA-MB-468, 2 h) [nM] | IC50 [nM]
C[C@H]1COCCN1c1cc(C(C)(C)S(C)(=O)=O)nc(-c2ccc(NC(=O)NCC3CC3)cc2)n1 [Example 24aq, 3-(cyclopropylmethyl)-1-[4-[4-[(3S)-3-methylmorpholin-4-yl]-6-(2-methylsulfonylpropan-2-yl)pyrimidin-2-yl]phenyl]urea] | 2000 | –
CC(NC(=O)Nc1ccc(-c2nc(N3CCOC[C@@H]3C)cc(C(C)(C)S(C)(=O)=O)n2)cc1)c1cccnc1 (stereo partly drawn) [Example 24ax, 1-[4-[4-[(3S)-3-methylmorpholin-4-yl]-6-(2-methylsulfonylpropan-2-yl)pyrimidin-2-yl]phenyl]-3-(1-pyridin-3-ylethyl)urea] | 640 | –
CC(C)NC(=O)Nc1ccc(-c2nc(N3CCOC[C@@H]3C)cc(C(C)(C)S(C)(=O)=O)n2)cc1 [Example 24al, 1-[4-[4-[(3S)-3-methylmorpholin-4-yl]-6-(2-methylsulfonylpropan-2-yl)pyrimidin-2-yl]phenyl]-3-propan-2-yl-urea] | 38 | –
C[C@H]1COCCN1c1cc(C(C)(C)S(C)(=O)=O)nc(-c2ccc(NC(=O)N3CCC3)cc2)n1 [Example 24be, N-[4-[4-[(3S)-3-methylmorpholin-4-yl]-6-(2-methylsulfonylpropan-2-yl)pyrimidin-2-yl]phenyl]azetidine-1-carboxamide] | 4900 | –
C[C@H]1COCCN1c1cc(C(C)(C)S(=O)(=O)C2CC2)nc(-c2ccc(NC(=O)NCCO)cc2)n1 [Example 57i, 1-[4-[4-(2-cyclopropylsulfonylpropan-2-yl)-6-[(3S)-3-methylmorpholin-4-yl]pyrimidin-2-yl]phenyl]-3-(2-hydroxyethyl)urea] | 270 | –
C[C@H]1COCCN1c1cc(C(C)(C)S(C)(=O)=O)nc(-c2ccc(NC(=O)N3CCCC(O)C3)cc2)n1 (stereo partly drawn) [Example 24bd, 3-hydroxy-N-[4-[4-[(3S)-3-methylmorpholin-4-yl]-6-(2-methylsulfonylpropan-2-yl)pyrimidin-2-yl]phenyl]piperidine-1-carboxamide] | 3200 | –
C[C@H]1COCCN1c1cc(C(C)(C)S(C)(=O)=O)nc(-c2ccc(NC(=O)NCc3cc[nH]n3)cc2)n1 [Example 24ay, 1-[4-[4-[(3S)-3-methylmorpholin-4-yl]-6-(2-methylsulfonylpropan-2-yl)pyrimidin-2-yl]phenyl]-3-(1H-pyrazol-3-ylmethyl)urea] | 7900 | –
C[C@H]1COCCN1c1cc(C(C)(C)S(C)(=O)=O)nc(-c2ccc(NC(=O)NCc3cccnc3)cc2)n1 [Example 24ao, 1-[4-[4-[(3S)-3-methylmorpholin-4-yl]-6-(2-methylsulfonylpropan-2-yl)pyrimidin-2-yl]phenyl]-3-(pyridin-3-ylmethyl)urea] | 240 | –
C[C@H]1COCCN1c1cc(CN2CCNC(=O)C2)nc(-c2ccc(NC(=O)NC3CC3)cc2)n1 [Example 49j, 3-cyclopropyl-1-[4-[4-[(3S)-3-methylmorpholin-4-yl]-6-[(3-oxopiperazin-1-yl)methyl]pyrimidin-2-yl]phenyl]urea] | 130 | –
C[C@H]1COCCN1c1cc(CS(C)(=O)=O)nc(-c2ccc(NC(=O)Nc3cccc(=O)[nH]3)cc2)n1 [Example 22c, 1-[4-[4-[(3S)-3-methylmorpholin-4-yl]-6-(methylsulfonylmethyl)pyrimidin-2-yl]phenyl]-3-(6-oxo-1H-pyridin-2-yl)urea] | 210 | –

Results, then the molecule that gave them:

IC50 (Homo sapiens, MDA-MB-468, 2 h) [nM] | IC50 [nM] | Molecule
99 | – | CCNC(=O)Nc1ccc(-c2nc(N3CCOC[C@@H]3C)cc(C(C)(C)S(=O)(=O)c3ccc(F)cc3)n2)cc1 [Example 61l, 1-ethyl-3-[4-[4-[2-(4-fluorophenyl)sulfonylpropan-2-yl]-6-[(3S)-3-methylmorpholin-4-yl]pyrimidin-2-yl]phenyl]urea]
37 | – | C[C@H]1COCCN1c1cc(CS(=O)(=O)CCO)nc(-c2ccc(NC(=O)NC3CCC3)cc2)n1 [Example 59a, 3-cyclobutyl-1-[4-[4-(2-hydroxyethylsulfonylmethyl)-6-[(3S)-3-methylmorpholin-4-yl]pyrimidin-2-yl]phenyl]urea]
120 | – | CNC(=O)Nc1ccc(-c2nc(N3CCOC[C@@H]3C)cc(C(C)(C)S(=O)(=O)c3ccc(F)cc3)n2)cc1 [Example 61k, 1-[4-[4-[2-(4-fluorophenyl)sulfonylpropan-2-yl]-6-[(3S)-3-methylmorpholin-4-yl]pyrimidin-2-yl]phenyl]-3-methyl-urea]
30 | – | CC(C)NC(=O)Nc1ccc(-c2nc(N3CCOC[C@@H]3C)cc(C(C)(C)S(=O)(=O)c3ccc(F)cc3)n2)cc1 [Example 61m, 1-[4-[4-[2-(4-fluorophenyl)sulfonylpropan-2-yl]-6-[(3S)-3-methylmorpholin-4-yl]pyrimidin-2-yl]phenyl]-3-propan-2-yl-urea]
150 | – | CC(C)S(=O)(=O)C(C)(C)c1cc(N2CCOC[C@@H]2C)nc(-c2ccc(NC(=O)NCCO)cc2)n1 [Example 60n, 3-(2-hydroxyethyl)-1-[4-[4-[(3S)-3-methylmorpholin-4-yl]-6-(2-propan-2-ylsulfonylpropan-2-yl)pyrimidin-2-yl]phenyl]urea]
300 | – | C[C@H]1COCCN1c1cc(C(C)(C)S(=O)(=O)C(C)(C)C)nc(-c2ccc(NC(=O)NCCO)cc2)n1 [Example 66g, 3-(2-hydroxyethyl)-1-[4-[4-[(3S)-3-methylmorpholin-4-yl]-6-(2-tert-butylsulfonylpropan-2-yl)pyrimidin-2-yl]phenyl]urea]
140 | – | CC(C)S(=O)(=O)C(C)(C)c1cc(N2CCOC[C@@H]2C)nc(-c2ccc(NC(=O)NCCN(C)C)cc2)n1 [Example 60p, 3-(2-dimethylaminoethyl)-1-[4-[4-[(3S)-3-methylmorpholin-4-yl]-6-(2-propan-2-ylsulfonylpropan-2-yl)pyrimidin-2-yl]phenyl]urea]
3300 | – | CCCNC(=O)Nc1ccc(-c2nc(CS(=O)(=O)C(C)C)cc(N3CCOC[C@@H]3C)n2)cc1 [Example 60a, 3-[4-[4-[(3S)-3-methylmorpholin-4-yl]-6-(propan-2-ylsulfonylmethyl)pyrimidin-2-yl]phenyl]-1-propyl-urea]
750 | – | CCNC(=O)Nc1ccc(-c2nc(CS(=O)(=O)c3ccc(F)cc3)cc(N3CCOC[C@@H]3C)n2)cc1 [Example 61a, 1-ethyl-3-[4-[4-[(4-fluorophenyl)sulfonylmethyl]-6-[(3S)-3-methylmorpholin-4-yl]pyrimidin-2-yl]phenyl]urea]
38 | – | CC(C)NC(=O)Nc1ccc(-c2nc(CS(=O)(=O)c3ccc(F)cc3)cc(N3CCOC[C@@H]3C)n2)cc1 [Example 61b, 1-[4-[4-[(4-fluorophenyl)sulfonylmethyl]-6-[(3S)-3-methylmorpholin-4-yl]pyrimidin-2-yl]phenyl]-3-propan-2-yl-urea]
– | 160 | 1-[4-[4-[(3S)-3-methylmorpholin- 4-yl]-6-(2-propan-2- yl]phenyl]-3-pyridin-2-yl-urea [Example 60u]
590 | – | CC(C)S(=O)(=O)Cc1cc(N2CCOC[C@@H]2C)nc(-c2ccc(NC(=O)Nc3ccc(C(F)(F)F)cc3)cc2)n1 [Example 60d, 1-[4-[4-[(3S)-3-methylmorpholin-4-yl]-6-(propan-2-ylsulfonylmethyl)pyrimidin-2-yl]phenyl]-3-[4-(trifluoromethyl)phenyl]urea]
790 | – | C[C@H]1COCCN1c1cc(CS(=O)(=O)c2ccc(F)cc2)nc(-c2ccc(NC(=O)NCCCO)cc2)n1 [Example 61h, 1-[4-[4-[(4-fluorophenyl)sulfonylmethyl]-6-[(3S)-3-methylmorpholin-4-yl]pyrimidin-2-yl]phenyl]-3-(3-hydroxypropyl)urea]
